Consider 3 compounds from US20100273714A1, “PEPTIDE COMPOUNDS FOR TREATING REFRACTORY STATUS EPILEPTICUS” (SCHWARZ PHARMA AG, priority 2006, published 2010).

Each structure is given as a SMILES string.

For assay [1], the system named is status epilepticus in the rat lithium/pilocarpine model. Kind of assay: Lithium/pilocarpine model of status epilepticus. Format: in vivo, Rats.
The test system of assay [2] is self-sustaining status epilepticus (SSSE) in perforant path stimulated rats. The note with it: Mazarati et al. 1999, cited from earlier work; for effectiveness against SSSE, delayed administration (in words): administration delayed / later in status epilepticus; for effectiveness against SSSE, early administration (in words): given before or at onset of SSSE / within the first 10 min of status epilepticus.

Assay [3] shares this test system. Kind of assay: Perforant path stimulation model of self-sustaining status epilepticus (acute seizure activity). Format: in vivo, Male Wistar rats. The method, then:
Male Wistar rats were implanted with a stimulating electrode into the angular bundle of the perforant path and a recording electrode into the granule cell layer of the dentate gyrus. Perforant path stimulation (PPS) was delivered for 30 or 60 minutes with the following parameters: 10 s, 20 Hz trains of 1 ms, 30 V pulses delivered every minute together with continuous 2 Hz stimulation with the same parameters.
(§1) The following indices were used to quantify seizure activity: cumulative seizure time (duration of SSSE, subtracting interictal time) and the number of seizure episodes. In addition the number of spontaneous seizures was measured 6 months following induction of SSSE in order to assess status epilepticus induced epileptogenesis.

The test system of assay [4] is status epilepticus induced epileptogenesis (spontaneous recurrent seizures) in perforant path stimulated rats. In words: Long term (disease-modifying) effects: spontaneous recurrent seizures at least 6 months after SSSE induction, EEG/video monitoring. It is filed as in vivo. The conditions noted are these: for spike frequency: early treatment, controls 9534±1114; for number of spontaneous recurrent seizures (SRSs) per week: treatment 10 min after perforant path stimulation, vehicle 110±8; for number of seizures per week: not statistically significant. Here is the method:
as §1
SSSE was induced in rats as described in Example 1. After SSSE induction, and at least 6 months wait (“silent period”) the animals were placed in EEG/telemetry/videotape continuously for two weeks for chronic EEG and video monitoring, but the second week, which was more remote from anaesthesia and surgery, was used to calculate seizure frequency (24 hours/day×7). Electrographic seizures were captured by the Harmony software, and were confirmed by offline manual review of the EEG and videotapes. The following indices were counted: total number of spikes of seizures for 7 days of observation, mean seizure duration, light/dark distribution.

[5] abbreviates: 50 mg/kg i.p., treatment initiated 40 minutes after PPS, FIG. 1.
The mark [6] stands for this setting: 50 mg/kg, administered 40 min after onset of SSSE.
The mark [7] stands for this setting: given 10 min after perforant path stimulation, doses 10 mg/kg and above.

Take `CN1C(=O)CN=C(c2ccccc2)c2cc(Cl)ccc21` [diazepam]: in assay [1] (administered 15 min after onset of status epilepticus), the “efficacy of diazepam alone (in words)” value is reported as “ineffective”. In assay [2], the “effectiveness against SSSE, delayed administration (in words)” value is given as “lost their effectiveness” and the “effectiveness against SSSE, early administration (in words)” value is given as “highly effective”.

As for `COC[C@@H](NC(C)=O)C(=O)NCc1ccccc1` [lacosamide, (R)-2-acetamido-N-benzyl-3-methoxypropionamide], in assay [1] (50 mg/kg, 10 minutes after onset of status epilepticus), the “motor seizure symptoms (in words)” value was “reduced motor seizure symptoms”. In addition, in assay [3] (setting [5]), the “cumulative seizure duration (in words)” value was “substantial reduction”. In addition, the “seizure frequency (in words)” value in assay [3] (setting [5]) is “substantial reduction”. For the same compound, in assay [3] (setting [6]), the “reduction in cumulative seizure duration” value amounted to 40%. The “reduction in seizure frequency” value in assay [3] (setting [6]) turned out to be 40%. The “anticonvulsant effect (in words)” value in assay [3] (given 10 min after perforant path stimulation) was “effective as an anticonvulsant”. Moreover, the “cumulative time spent seizing after treatment (in words)” value in assay [3] (setting [7]) is recorded as “reduced”. Also, the “number of seizures (in words)” value is reported as “reduced the number of seizures” in assay [3] (setting [7]) and “non-significant reduction” in assay [3] (late treatment, 40 min after perforant path stimulation). Moreover, the spike frequency in assay [4] (3 mg/kg group) is 7557±1945 spikes/week; in assay [4] (30 mg/kg group) it was 2969±542 spikes/week; in assay [4] (50 mg/kg group) it was 2588±370 spikes/week; in assay [4] ("mg/kg" group (dose not given)) it was 3536±380 spikes/week. The “number of spontaneous recurrent seizures (SRSs) per week” value in assay [4] (3 mg/kg) was determined as 85±5 SRS/week; in assay [4] (10 mg/kg) it was 66±8 SRS/week; in assay [4] (30 mg/kg), 42±8 SRS/week; in assay [4] (50 mg/kg), 34±6 SRS/week. Moreover, the “number of seizures per week” value came out at 100±7 seizures per week in assay [4] (10 mg/kg, treatment 40 min after perforant path stimulation, control 110±8); 67±67 seizures per week in assay [4] (30 mg/kg, treatment 40 min after perforant path stimulation, control 110±8); 45±29 seizures per week in assay [4] (50 mg/kg, treatment 40 min after perforant path stimulation, control 110±8). Besides, the “median number of seizures” value amounted to 0 in assay [4] (30 mg/kg group, treatment 40 min after perforant path stimulation) and 0 in assay [4] (50 mg/kg group, treatment 40 min after perforant path stimulation). In addition, the “percentage of rats developing chronic epilepsy / spontaneous recurrent seizures” value in assay [4] (30-50 mg/kg, 6 months after induction of SSSE, vehicle 100%) was 30%. Besides, the “reduction of number of seizures per week (seizure frequency)” value in assay [4] (30-50 mg/kg, after six months, vehicle average 110 seizures per week) was found to be 60%. Also, in assay [4] (treatment 40 min after perforant path stimulation, two higher dosage groups combined, control 6/6, p<0.05), the “number of animals showing spontaneous recurrent seizures” value is 3/9. In assay [4] (treatment 40 min after perforant path stimulation, two highest treatment groups combined, control 110±8), the “seizure numbers per week” value was 55±32 seizures per week.

On to `O=C1NC(=O)C(c2ccccc2)(c2ccccc2)N1` [phenytoin], for which, in assay [2], the “effectiveness against SSSE, delayed administration (in words)” value is “lost their effectiveness” and the “effectiveness against SSSE, early administration (in words)” value was “highly effective”.
